According to article PMC9456187, “The Ambivalence of Connexin43 Gap Peptides in Cardioprotection of the Isolated Heart against Ischemic Injury” (International Journal of Molecular Sciences, 2022):

What was measured:
[1] = test system: ischemic preconditioning (IPC) cardioprotection; conditions: cited from earlier work; for Inhibition of the triggering step of IPC (in words): ref [21],[40],[41],[42],[43]; for Effect on cardioprotection by preconditioning (in words): ref [21]
Procedure: IPC is a powerful and robust cardioprotective mechanism. In the current study, we wanted to examine if IPC in combination with Gap peptides would interfere with infarct size limitation. […] Peptides were added prior to and during three cycles of ischemic preconditioning pretreatment before prolonged global ischemia but not at the following reperfusion. When combining Gap26 and ischemic preconditioning, the protection agains ... || Through the years, multiple attempts have been made to use cardioprotection by IPC or pharmacological interventions that mimic IPC to reduce infarct size in the clinic. So far, this has been without success when carried through to large phase 3 clinical studies. Adaption to stress is a beneficial endogenous mechanism closely related to injury mechanisms.

[2] = test system: isolated perfused male rat hearts; assay: Left ventricular function (LVDP, EDP) after ischemia-reperfusion, Langendorff-perfused heart; parameters: species or system male Wistar rat; conditions: % recovery of initial preischemic LVDP after 30 min ischemia and 120 min reperfusion; peptide during IPC
Procedure: (§1) All experiments were approved by the Norwegian animal research authority and were performed according to the Norwegian Animal Welfare Act and the European Convention for the Protection of Vertebrate Animals Used for Experimental and other Scientific Purposes (ETS No. 123 and 2010/63/EU). Male Wistar rats 250–350 g (Charles River, UK) were anesthetized with pentobarbital (100 mg/kg i.p.) and heparinized (300 IU i.p.), the chest opened and the heart removed.
(§2) The heart was immediately submerged in an ice-cold buffer and quickly mounted on the perfusion apparatus, where it was perfused with the Krebs–Henseleit buffer (gassed with 5% CO2 and 95%O2) in a constant pressure Langendorff setup (100 cm H2O). The temperature was kept at 37 °C during the whole experiment by keeping the heart submerged in a heated buffer. Left ventricular pressure was recorded using a balloon catheter connected to a pressure transducer. Coronary flow was measured by timed collections of perfusate.
(§3) Hearts were stabilized for 15 min, then either subjected to 30 min of global ischemia and 2 h of reperfusion or preconditioning with 3 cycles of 5 min of ischemia and reperfusion (IPC) before 30 min of global ischemia and 2 h of reperfusion. Care was taken to secure controls corresponding in time and rat batch with the intervention experiments. […]

[3] = test system: isolated perfused male rat hearts (connexin43 hemichannels); assay: Infarct size (TTC staining) after global ischemia-reperfusion, Langendorff-perfused heart; parameters: species or system male Wistar rat
Procedure: as §1, §2
Hearts were stabilized for 15 min, then either subjected to 30 min of global ischemia and 2 h of reperfusion or preconditioning with 3 cycles of 5 min of ischemia and reperfusion (IPC) before 30 min of global ischemia and 2 h of reperfusion. Care was taken to secure controls corresponding in time and rat batch with the intervention experiments.
Connexin mimetic peptides Gap19 (amino acid sequence KQIEKKFK), Gap26 (VCYDKSFPISHVR) and Gap27 (SRPTEKTIFII) from Pepnome Inc., Hong Kong, China, were dissolved in the Krebs–Henseleit buffer to a final concentration of 0.5 µM [7, 12] and used in experiments the same day. Amino-acid sequences were confirmed by mass spectrometry analysis. The hearts that were subject to ischemia without IPC received the peptides prior to and after 30 min global ischemia. The hearts that were subject to IPC received the peptides during the preconditioning cycles only prior to 30 min ischemia.
At the end of reperfusion, the heart was immediately cut off caudal to the atria yielding only ventricular tissue. The ventricular tissue was then weighed in its wet state and immediately frozen to −18 °C for 24 h, sliced into four or five 2 mm thick slices and dyed with 1% 2, 3, 5 triphenyl tetrazolium chloride (TTC) (Sigma-Aldrich Co., Ltd., St. Louis, MI, USA) in Dulbecco’s phosphate buffered saline (PBS) (Sigma-Aldrich Co.). Each heart was submerged in 50mL of 1% TTC in PBS for 20 min at 37 °C in a light-free environment. Thereafter the slices were quickly dried and fixed in 4% formaldehyde for 30 min before they were scanned by a high-resolution scanner; the images were then blind-coded. Infarcts were manually traced, and the area of infarct relative to the whole area was quantified using Image J software. […]

[4] = test system: subsarcolemmal mitochondria isolated from perfused rat hearts; assay: High-resolution respirometry of isolated subsarcolemmal mitochondria; format: biochemical, male Wistar rat; conditions: pH 7.4, 37 °C; for Oxygen flux, +Oligomycin: oligomycin 4 µg/mL; for Oxygen flux, +Oligomycin / Oxygen flux, +ADP 50 µM / Oxygen flux, Glutamate + Maleate / Oxygen flux, OXPHOS Saturating +ADP 2.5 mM / Oxygen flux, State 4 (LEAK ATP): mean ± SEM, n = 3; for Oxygen flux, +ADP 50 µM / Oxygen flux, Glutamate + Maleate / Oxygen flux, OXPHOS Saturating +ADP 2.5 mM / Oxygen flux, State 4 (LEAK ATP): 10 min preincubation on ice
Procedure: as §1
Hearts were control perfused or subjected to IPC. Isolation of mitochondria was performed using the procedure described by Palmer et al. (1977) with minor modifications. All procedures were performed on ice or at 4 °C. Briefly, the ventricles were removed, weighed and placed in the buffer containing (in mM): 100 KCl, 50 MOPS, 1 EGTA, 5 MgSO4, 1 ATP and pH 7.4. Heart tissue was minced with scissors in a small volume of buffer. Buffer plus bovine serum albumin BSA (2 mg/mL) were added, and the tissue suspension was homogenized with Polytron for 7 s and thereafter with two strokes of a Potter-Elvehjem homogenizer (Glas-Col, Terre Haute, IN, USA) and centrifuged at 590× g for 10 min at 4 °C. The supernatant was filtered through a nylon net (NITEX 300 lm; Yulee, FL, USA). Supernatants now containing mitochondria mainly from the subsarcolemmal compartment (SSM fraction) were centrifuged at 3000× g for 10 min at 4 °C, and the SSM pellet was again resuspended in the buffer plus BSA and centrifuged at 3000× g for 10 min. The pellet was resuspended in the buffer containing (in mM): 100 KCl, 50 MOPS 50, 0.5 EGTA and pH 7.4 and centrifuged at 3000× g for 10 min at 4 °C. The final pellet was resuspended in this buffer and left on ice for 30 min for stabilization of membranes.
Measurement of mitochondrial oxygen consumption was performed in an oxygraph (Oxygraph 2k; Oroboros Instruments, Innsbruck, Austria) using a respiration medium [100 KCl; 50 MOPS; 1 EGTA; 5 KH2PO4 (all in mM); BSA 1 mg mL) and pH = 7.4] in a closed 2 mL chamber at 37 °C. Glutamate (5.0 mM) and malate (2.5 mM) were used as substrates. After obtaining stable respiration O2 flux (nmol O2/min/mL), ADP was added to a final concentration of 50 µM to measure coupled respiration. After depletion of ADP and stable respiration, a saturating ADP amount (2.5 mM) was added to obtain max coupled respiration (OxPhos). Finally, oligomycin was added to a final concentration of 4 µg/mL to inhibit the ATP-synthase, and a stable state oligomycin measurement was recorded. At the end of the experiments, protein content was estimated by the Bradford method, and citrate synthase activity was measured. Results of O2 flux measurements (nmol O2/min) were normalized to citrate synthase activity (IU µmol/min) in the sample. Phosphate/oxygen ratio (P/O ratio) was calculated as ADP phosphorylated divided by oxygen molecules consumed. The respiratory control ratio (RCR) was calculated as the ratio between max state 3 (OxPhos) and […].
In order to assess the effect of Gap26 and Gap27 on mitochondrial respiration, peptides in concentrations 0.5, 5.0 and 50.0 µM were added to the isolated mitochondria. After 10 min preincubation on ice 60 µL of the suspension was added to the oxygraphy, and peptide concentration was adjusted to the new volume, so the final peptide concentration was the same during the whole experiment. Each subgroup consisted of samples from 3–4 hearts, and care was taken to minimize variability by testing the different Gap peptides and concentrations concomitantly in every heart at the same time using multiple respiratory chambers.
Statistical analysis was performed by SigmaPlot version 14.5 (Systate Software Inc. Chicago, IL, USA) using one-way or two-way ANOVA followed by the Holms Sidac method as a post hoc test when appropriate. Results are presented as mean ± SEM except for binding kinetics, which is presented as mean ± SD (n = 3–4).

[5] = test system: isolated perfused male rat hearts; assay: Coronary flow in isolated perfused heart; parameters: species or system male Wistar rat; conditions: before 30 min ischemia; Gap peptide in buffer
Procedure: as §1, §2, §3

[6] = control hearts (crt), peptide 0.5 µM
[7] = control hearts (crt), peptide 5 µM
[8] = control hearts (crt), peptide 50 µM

## COc1ccc2[nH]cc(CCNC(C)=O)c2c1 [melatonin]
[1]
  Inhibition of the triggering step of IPC (in words): inhibit the triggering step of IPC

## KQIEKKFK [Gap19]
[2]
  Recovery of LVDP, Gap peptide combined with IPC (in words): significant increase in % recovery of LVDP (p < 0.05)
[3]; Gap peptide prior to and during three IPC cycles, not at reperfusion
  Cardioprotection / infarct size reduction when combined with IPC (in words): protection was maintained
[3]; IPC 3 cycles of 5 min ischemia/reperfusion, Gap peptide 0.5 µM (Figure 1 legend: 0.05 µM) only during preconditioning cycles before 30 min global ischemia, 2 h reperfusion, TTC, mean ± SEM
  Infarct size in % of untreated control infarcts, Gap peptide combined with IPC: 60.9 ± 5.1%
[3]; no IPC, Gap peptide immediately prior to ischemia and first 10 min of reperfusion
  Infarct size reduction (in words): reducing infarct size to the same degree as ischemic preconditioning
[3]; no IPC, isolated rat heart, 37 °C, Gap peptide 0.5 µM (Figure 1 legend: 0.05 µM) prior to and after 30 min global ischemia, 2 h reperfusion, TTC, mean ± SEM
  Infarct size in % of untreated control infarcts: 76.2 ± 2.7%
[4]; Gap peptides 0.5, 5, 50 µM added in vitro to isolated mitochondria from control or IPC hearts, glutamate + malate
  Mitochondrial respiration / average oxygen flux, RCR or P/O ratio (in words): not able to detect significant change
[4]; IPC hearts, peptide 0.5 µM
  Oxygen flux, +Oligomycin: 37.8 ± 7.4 nmol O2 (µmol IU CS Activity)^−1
  Oxygen flux, +ADP 50 µM: 69.8 ± 28.0 nmol O2 (µmol IU CS Activity)^−1
  Oxygen flux, Glutamate + Maleate: 15.2 ± 4.2 nmol O2 (µmol IU CS Activity)^−1
  Oxygen flux, OXPHOS Saturating +ADP 2.5 mM: 92.5 ± 25.1 nmol O2 (µmol IU CS Activity)^−1
  Oxygen flux, State 4 (LEAK ATP): 21.2 ± 5.3 nmol O2 (µmol IU CS Activity)^−1
[4]; IPC hearts, peptide 5 µM
  Oxygen flux, +Oligomycin: 39.0 ± 3.7 nmol O2 (µmol IU CS Activity)^−1
  Oxygen flux, +ADP 50 µM: 71.4 ± 7.5 nmol O2 (µmol IU CS Activity)^−1
  Oxygen flux, Glutamate + Maleate: 15.9 ± 1.7 nmol O2 (µmol IU CS Activity)^−1
  Oxygen flux, OXPHOS Saturating +ADP 2.5 mM: 98.3 ± 10.5 nmol O2 (µmol IU CS Activity)^−1
  Oxygen flux, State 4 (LEAK ATP): 21.0 ± 2.6 nmol O2 (µmol IU CS Activity)^−1
[4]; IPC hearts, peptide 50 µM
  Oxygen flux, +Oligomycin: 44.2 ± 7.5 nmol O2 (µmol IU CS Activity)^−1
  Oxygen flux, +ADP 50 µM: 76.8 ± 21.6 nmol O2 (µmol IU CS Activity)^−1
  Oxygen flux, Glutamate + Maleate: 19.6 ± 6.1 nmol O2 (µmol IU CS Activity)^−1
  Oxygen flux, OXPHOS Saturating +ADP 2.5 mM: 116.2 ± 37.7 nmol O2 (µmol IU CS Activity)^−1
  Oxygen flux, State 4 (LEAK ATP): 24.0 ± 6.1 nmol O2 (µmol IU CS Activity)^−1
[4]; [6]
  Oxygen flux, +Oligomycin: 42.8 ± 4.5 nmol O2 (µmol IU CS Activity)^−1
  Oxygen flux, +ADP 50 µM: 68.9 ± 6.5 nmol O2 (µmol IU CS Activity)^−1
  Oxygen flux, Glutamate + Maleate: 16.6 ± 5.0 nmol O2 (µmol IU CS Activity)^−1
  Oxygen flux, OXPHOS Saturating +ADP 2.5 mM: 89.2 ± 35.6 nmol O2 (µmol IU CS Activity)^−1
  Oxygen flux, State 4 (LEAK ATP): 23.8 ± 5.2 nmol O2 (µmol IU CS Activity)^−1
[4]; [7]
  Oxygen flux, +Oligomycin: 43.5 ± 2.6 nmol O2 (µmol IU CS Activity)^−1
  Oxygen flux, +ADP 50 µM: 75.1 ± 11.3 nmol O2 (µmol IU CS Activity)^−1
  Oxygen flux, Glutamate + Maleate: 16.6 ± 2.6 nmol O2 (µmol IU CS Activity)^−1
  Oxygen flux, OXPHOS Saturating +ADP 2.5 mM: 113.7 ± 12.9 nmol O2 (µmol IU CS Activity)^−1
  Oxygen flux, State 4 (LEAK ATP): 22.1 ± 1.6 nmol O2 (µmol IU CS Activity)^−1
[4]; [8]
  Oxygen flux, +Oligomycin: 44.6 ± 5.1 nmol O2 (µmol IU CS Activity)^−1
  Oxygen flux, +ADP 50 µM: 78.9 ± 14.0 nmol O2 (µmol IU CS Activity)^−1
  Oxygen flux, Glutamate + Maleate: 18.2 ± 0.9 nmol O2 (µmol IU CS Activity)^−1
  Oxygen flux, OXPHOS Saturating +ADP 2.5 mM: 115.3 ± 8.7 nmol O2 (µmol IU CS Activity)^−1
  Oxygen flux, State 4 (LEAK ATP): 24.8 ± 3.0 nmol O2 (µmol IU CS Activity)^−1
[5]
  Coronary flow at baseline (in words): significantly reduced with Gap19 compared to control (p < 0.05)

## CC(=O)Oc1ccccc1C(=O)O [acetylsalicylic acid (aspirin), acetylsalicylic acid]
[1]
  Inhibition of the triggering step of IPC (in words): inhibit the triggering step of IPC

## CCCN(CCC)S(=O)(=O)c1ccc(C(=O)O)cc1 [probenecid]
[1]
  Effect on cardioprotection by preconditioning (in words): could inhibit this effect

## O=c1[nH]c(=O)c2[nH]c(=O)[nH]c2[nH]1 [uric acid]
[1]
  Inhibition of the triggering step of IPC (in words): inhibit the triggering step of IPC
  Effect on cardioprotection by preconditioning (in words): blocks cardioprotection by preconditioning
